From ChEMBL document CHEMBL5338768, “Discovery of PMSA Derivative 11 as a Novel Lead Compound for Therapeutic Treatment of Osteoporosis In Vitro and In Vivo” (J Med Chem, 2023)
Activity calls are given as the source filed them. No cut-off for these calls is given here.

Experiments:
[1] = test system: Osteoclast; test: Anti-osteoclastogenesis in RANKL induced C57/BL6 mouse osteoclast assessed as formation of mature osteoclast measured at 1 uM by TRAP-staining based microscopic analysis relative to control; type: functional
[2] = test system: BMDM; test: Anti-osteoclastogenesis in RANKL/M-CSF induced C57/BL6 mouse osteogenic differentiated BMDM assessed as repression of F-actin ring at 10 uM spectra max i3x fluorescence plate reader based microscopic analysis; type: functional, cell-based
[3] = test system: BMDM; test: Anti-osteoclastogenesis in RANKL/M-CSF induced C57/BL6 mouse osteogenic differentiated BMDM assessed as decrease in pit area at 10 uM for 6 days by measuring fluorescence intensity using fluorescein amine labelled calcium plate method; type: functional, cell-based; settings: time 6.0 day
[4] = test system: Mus musculus; test: Anti-osteoporosis activity in OVX induced osteoporosis C57BL/6 mouse model assessed as prevention of bone loss in femur at 20 mg/kg, ip daily for 4 weeks by micro computed tomographic analysis; type: functional, organism-based
[5] = molecular target: T1, Nuclear factor of activated T-cells, cytoplasmic 1 (Mus musculus) (UniProt O88942); test: Inhibition of pronase mediated NFATc1 degradation in mouse osteogenic differentiated BMDM multi nuclear mature osteoclast at 50 uM for 1 hr by drug affinity responsive target stability analysis; type: cell-based
T1 sequence (whole entry): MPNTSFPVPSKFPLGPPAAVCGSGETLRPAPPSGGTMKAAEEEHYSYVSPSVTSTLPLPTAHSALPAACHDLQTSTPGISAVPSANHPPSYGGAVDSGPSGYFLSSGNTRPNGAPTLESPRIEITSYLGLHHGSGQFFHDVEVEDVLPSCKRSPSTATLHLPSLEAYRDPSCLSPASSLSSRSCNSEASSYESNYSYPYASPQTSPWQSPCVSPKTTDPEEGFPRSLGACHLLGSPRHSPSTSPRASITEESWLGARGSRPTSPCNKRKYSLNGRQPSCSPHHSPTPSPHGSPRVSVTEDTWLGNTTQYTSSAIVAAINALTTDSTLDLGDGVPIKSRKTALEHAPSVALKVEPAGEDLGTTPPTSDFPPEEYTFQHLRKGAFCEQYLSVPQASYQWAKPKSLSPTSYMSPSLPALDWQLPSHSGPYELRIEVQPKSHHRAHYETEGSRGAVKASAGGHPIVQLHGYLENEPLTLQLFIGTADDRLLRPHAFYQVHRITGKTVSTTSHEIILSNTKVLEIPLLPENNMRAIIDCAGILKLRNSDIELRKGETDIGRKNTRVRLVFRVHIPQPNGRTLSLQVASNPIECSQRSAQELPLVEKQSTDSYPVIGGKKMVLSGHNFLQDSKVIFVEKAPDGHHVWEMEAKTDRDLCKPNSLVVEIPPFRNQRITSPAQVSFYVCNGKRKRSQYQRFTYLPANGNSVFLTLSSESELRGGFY

[6] = test system: Osteoclast; test: Anti-osteoclastogenesis in RANKL induced C57/BL6 mouse osteoclast assessed as inhibition of differentiation of bone marrow derived macrophage measured by TRAP-staining based microscopic analysis; type: functional, cell-based
[7] = test system: BMDM; test: Cytotoxicity in RANKL induced C57/BL6 mouse BMDM incubated at <4 uM for 48 hrs; type: functional, cell-based
[8] = test system: BMDM; test: Cytotoxicity in RANKL induced C57/BL6 mouse mouse osteogenic differentiated BMDM assessed as blocking of formation of multinucleated mature osteoclast incubated at 4 uM for 48 hrs; type: functional, cell-based
[9] = test system: Osteoclast; test: Anti-osteoclastogenesis in RANKL induced C57/BL6 mouse osteoclast assessed as blocking of formation of multinucleated mature osteoclast incubated for 48 hrs; type: functional, cell-based; settings: dose 62.5-4000 nM
[10] = test system: BMDM; test: Anti-osteoclastogenesis in RANKL/M-CSF induced C57/BL6 mouse osteogenic differentiated BMDM assessed as repression of F-actin ring at 500 to 2000 nM spectra max i3x fluorescence plate reader based microscopic analysis; type: functional, cell-based; settings: dose 500-2000 nM
[11] = test system: BMDM; test: Anti-osteoclastogenesis in RANKL/M-CSF induced C57/BL6 mouse osteogenic differentiated BMDM assessed as decrease in pit area at 0.5 to 2 uM for 6 days by measuring fluorescence intensity using fluorescein amine labelled calcium plate method; type: functional, cell-based; settings: dose 0.5-2 µM, time 6.0 day
[12] = test system: Calvarial osteoblast; test: Effect on osteogenesis in BMP2 stimulated mouse osteogenic differentiated calvaria primary osteoblast assessed as chane in percentage of ALP positive density at 0.125 to 16 uM with replacement of compound containing media daily for 9 days by ALP staining analysis; type: functional, cell-based; settings: dose 0.125-16 µM, time 9.0 day
[13] = test system: BMDM; test: Anti-osteoclastogenesis in RANKL/M-CSF induced C57/BL6 mouse osteogenic differentiated BMDM assessed as suppression of mRNA level of osteoclastogenesis related Dc-stamp gene expression measured for 0 to 4 days by qRT-PCR analysis; type: functional, cell-based; settings: time 0-4 day
[14] = test system: BMDM; test: Anti-osteoclastogenesis in RANKL/M-CSF induced C57/BL6 mouse osteogenic differentiated BMDM assessed as suppression of mRNA level of osteoclastogenesis related Acp5 gene expression measured for 0 to 4 days by qRT-PCR analysis; type: functional, cell-based; settings: time 0-4 day
[15] = test system: BMDM; test: Anti-osteoclastogenesis in RANKL/M-CSF induced C57/BL6 mouse osteogenic differentiated BMDM assessed as suppression of mRNA level of osteoclastogenesis related Nfatc1 gene expression measured for 0 to 4 days by qRT-PCR analysis; type: functional, cell-based; settings: time 0-4 day
[16] = test system: BMDM; test: Anti-osteoclastogenesis in RANKL/M-CSF induced C57/BL6 mouse osteogenic differentiated BMDM assessed as suppression of mRNA level of osteoclastogenesis related Atp6v0d2 gene expression measured for 0 to 4 days by qRT-PCR analysis; type: functional, cell-based; settings: time 0-4 day
[17] = test system: BMDM; test: Anti-osteoclastogenesis in RANKL/M-CSF induced C57/BL6 mouse osteogenic differentiated BMDM assessed as suppression of mRNA level of osteoclastogenesis related Mmp9 gene expression measured for 0 to 4 days by qRT-PCR analysis; type: functional, cell-based; settings: time 0-4 day
[18] = test system: BMDM; test: Anti-osteoclastogenesis in RANKL/M-CSF induced C57/BL6 mouse osteogenic differentiated BMDM assessed as suppression of mRNA level of osteoclastogenesis related Ctsk-gene expression measured for 0 to 4 days by qRT-PCR analysis; type: functional, cell-based; settings: time 0-4 day
[19] = test system: BMDM; test: Anti-osteoclastogenesis in RANKL induced C57/BL6 mouse osteogenic differentiated BMDM assessed as inhibition of TRAF6 protein expression measured at 1 uM for 0 to 4 days by Western blotting analysis; type: functional, cell-based; settings: time 0-4 day
[20] = test system: BMDM; test: Anti-osteoclastogenesis in RANKL induced C57/BL6 mouse osteogenic differentiated BMDM assessed as inhibition of c-src protein expression measured at 1 uM for 0 to 4 days by Western blotting analysis; type: functional, cell-based; settings: time 0-4 day
[21] = test system: BMDM; test: Anti-osteoclastogenesis in RANKL induced C57/BL6 mouse osteogenic differentiated BMDM assessed as inhibition of N-FkappaB protein expression measured at 1 uM for 0 to 4 days by Western blotting analysis; type: functional, cell-based; settings: time 0-4 day
[22] = test system: BMDM; test: Anti-osteoclastogenesis in RANKL induced C57/BL6 mouse osteogenic differentiated BMDM assessed as inhibition of c-fos protein expression measured at 1 uM for 0 to 4 days by Western blotting analysis; type: functional, cell-based; settings: time 0-4 day
[23] = test system: BMDM; test: Anti-osteoclastogenesis in RANKL induced C57/BL6 mouse osteogenic differentiated BMDM assessed as inhibition of NFATc1 protein expression measured at 1 uM for 0 to 4 days by Western blotting analysis; type: functional, cell-based; settings: time 0-4 day
[24] = test system: BMDM; test: Anti-osteoclastogenesis in RANKL induced C57/BL6 mouse osteogenic differentiated BMDM assessed as inhibition of protease Ctsk-protein expression measured at 1 uM for 0 to 4 days by Western blotting analysis; type: functional, cell-based; settings: time 0-4 day
[25] = test system: BMDM; test: Anti-osteoclastogenesis in RANKL induced C57/BL6 mouse osteogenic differentiated BMDM assessed as increased NAFTc1 protein level in cytoplasm measured for 48 hrs by Western blotting analysis; type: functional, cell-based
[26] = test system: BMDM; test: Anti-osteoclastogenesis in RANKL induced C57/BL6 mouse osteogenic differentiated BMDM assessed as decreased NAFTc1 protein level in nucleus measured for 48 hrs by Western blotting analysis; type: functional, cell-based
[27] = test system: BMDM; test: Anti-osteoclastogenesis in RANKL/M-CSF induced C57/BL6 mouse osteogenic differentiated BMDM assessed as expression of calcineurin A in NAFTc1 translocation by immunofluorescence microscopy; type: functional, cell-based
[28] = test system: BMDM; test: Anti-osteoclastogenesis in RANKL/M-CSF induced C57/BL6 mouse osteogenic differentiated BMDM assessed as expression of GSK3beta in NAFTc1 translocation by immunofluorescence microscopy; type: functional, cell-based
[29] = test system: BMDM; test: Anti-osteoclastogenesis in RANKL/M-CSF induced C57/BL6 mouse osteogenic differentiated BMDM assessed as expression of CRM1 in NAFTc1 translocation by immunofluorescence microscopy; type: functional, cell-based
[30] = test system: BMDM; test: Anti-osteoclastogenesis in RANKL/M-CSF induced C57/BL6 mouse osteogenic differentiated BMDM assessed as expression of GAPDH in NAFTc1 translocation by immunofluorescence microscopy; type: functional, cell-based
[31] = test system: Osteoclast; test: Anti-osteoclastogenesis in human RANKL/human M-CSF induced human iPSC-derived macrophage assessed as inhibition of mature osteoclast differentiation measured for 10 days by TRAP staining assay; type: functional, cell-based; settings: time 10.0 day
[32] = Toxicity in OVX induced osteoporosis C57BL/6 mouse model assessed as reduction of body weight at 20 mg/kg, ip daily for 4 weeks measured every week; type: organism-based; settings: in vivo, 672 h

Compound: COc1ccccc1OC(=O)c1cccc(N(CC(=O)Nc2ccccc2Sc2ccccc2)S(C)(=O)=O)c1
- inhibition at 1 µM [1]: 20.3%

Compound: CC(=O)c1cccc(N(CC(=O)Nc2ccccc2Sc2ccccc2)S(C)(=O)=O)c1
- inhibition at 1 µM [1]: 6.09%
- Activity [2]: Active
- Activity [3]: Active
- Activity [4]: inactive

Compound: COC(=O)c1cccc(N(CC(=O)Nc2ccccc2Sc2ccccc2)S(C)(=O)=O)c1
- inhibition at 1 µM [1]: 8.13%

Compound: CS(=O)(=O)N(CC(=O)Nc1ccccc1Sc1ccccc1)c1cccc(C(=O)O)c1
- inhibition at 1 µM [1]: 0.11%

Compound: CS(=O)(=O)N(CC(=O)Nc1ccccc1Sc1ccccc1)c1cccc(C(=O)Oc2ccc(Cl)cc2)c1
- inhibition at 1 µM [1]: 23.9%

Compound: Cc1ccccc1OC(=O)c1cccc(N(CC(=O)Nc2ccccc2Sc2ccccc2)S(C)(=O)=O)c1
- inhibition at 1 µM [1]: 15.3%

Compound: COc1ccccc1OC(=O)c1cccc(NCC(=O)Nc2ccccc2Sc2ccccc2)c1
- inhibition at 1 µM [1]: 52.3%

Compound: CS(=O)(=O)N(CC(=O)Nc1ccccc1Sc1ccccc1)c1cccc(C(=O)Oc2cccc([N+](=O)[O-])c2)c1
- inhibition at 1 µM [1]: 4.74%

Compound: CS(=O)(=O)N(CC(=O)Nc1ccccc1Sc1ccccc1)c1cccc(C(=O)Oc2cccc3ccccc23)c1
- inhibition at 1 µM [1]: 9.03%

Compound: CC(C)(C)c1ccc(OC(=O)c2cccc(N(CC(=O)Nc3ccccc3Sc3ccccc3)S(C)(=O)=O)c2)cc1
- inhibition at 1 µM [1]: 4.07%

Compound: CS(=O)(=O)N(CC(=O)Nc1ccccc1Sc1ccccc1)c1cccc(Cl)c1
- inhibition at 1 µM [1]: 16.2%

Compound: COc1ccc(OC(=O)c2cccc(NCC(=O)Nc3ccccc3Sc3ccccc3)c2)cc1
- inhibition at 1 µM [1]: 50.9%

Compound: CS(=O)(=O)N(CC(=O)Nc1ccccc1Sc1ccccc1)c1cccc(C(=O)Oc2ccc([N+](=O)[O-])cc2)c1
- inhibition at 1 µM [1]: 15.3%

Compound: O=C(CNc1cccc(C(=O)Oc2ccc(Cl)cc2)c1)Nc1ccccc1Sc1ccccc1
- inhibition at 1 µM [1]: 43.2%

Compound: Cc1cccc(OC(=O)c2cccc(N(CC(=O)Nc3ccccc3Sc3ccccc3)S(C)(=O)=O)c2)c1
- inhibition at 1 µM [1]: 19%

Compound: NCCCC(O)(P(=O)(O)O)P(=O)(O)O [ALENDRONIC ACID]
- inhibition at 1 µM [1]: 30.9%

Compound: CS(=O)(=O)N(CC(=O)Nc1ccccc1Sc1ccccc1)c1cccc(C(=O)Oc2ccc3ccccc3c2)c1
- inhibition at 1 µM [1]: 11.3%

Compound: CS(=O)(=O)N(CC(=O)Nc1ccccc1Sc1ccccc1)c1cccc(C(=O)Oc2ccccc2C#N)c1
- inhibition at 1 µM [1]: 11.1%

Compound: Cc1ccc(OC(=O)c2cccc(N(CC(=O)Nc3ccccc3Sc3ccccc3)S(C)(=O)=O)c2)cc1
- inhibition at 1 µM [1]: 14.2%

Compound: COc1ccc(OC(=O)c2cccc(N(CC(=O)Nc3ccccc3Sc3ccccc3)S(C)(=O)=O)c2)cc1
- inhibition at 1 µM [1]: 25.7%

Compound: COC(=O)c1cccc(NCC(=O)Nc2ccccc2Sc2ccccc2)c1
- inhibition [5]: Active
- inhibition at 1 µM [1]: 74.5%
- IC50 [6]: 323 nM
- Activity [7]: inactive
- Activity [8]: Active
- Activity [9]: Dose-Dependent Effect
- Activity [10]: Active
- Activity [11]: Dose-Dependent Effect
- Activity [12]: inactive
- Activity [13]: Active
- Activity [14]: Active
- Activity [15]: Active
- Activity [16]: Active
- Activity [17]: Active
- Activity [18]: Active
- Activity [19]: inactive
- Activity [20]: inactive
- Activity [21]: inactive
- Activity [22]: inactive
- Activity [23]: inactive
- Activity [24]: Active
- Activity [25]: Active
- Activity [26]: Active
- Activity [27]: inactive
- Activity [28]: inactive
- Activity [29]: inactive
- Activity [30]: inactive
- Activity [31]: Active
- Activity [32]: Non-Toxic
- Activity [4]: Active
